# Molecular target: T1, [3H]ifenprodil binding site, rat forebrain membranes (Rattus norvegicus, UniProt P35439+Q00960)
# T1 construct: membrane fraction was prepared from frozen adult rat forebrains; tissue Zivic-Miller Laboratories, Inc; host or cells: adult rat forebrain, washed buffy coat membrane fraction
# Assay: [3H]Ifenprodil binding assay
# Conditions: 4 nM [3H]-ifenprodil, 2 hours at room temperature
# Protocol: All buffers and reagents used in assay incubations or to dissolve drugs were prepared using water purified through a Milli-Q reverse osmosis system (Millipore Corp, Bedford, Mass.) and treated with UV emissions. Prior to use in the assays, buffers were further filtered through a sterile Corning filtration unit (Corning Glass Works, Corning, N.Y.) containing a 0.2-micron filter. Buffer used to rinse the membranes on the assay filters was prepared with purified water, but was not refiltered and was stored no longer than 5 days. Stock solutions of the drugs (usually 10 mM) were dissolved in 20 mM HEPES-KOH buffer pH 7.4 (assay buffer) with the addition of 1 to 5 μL of glacial AcOH, if needed to keep them in solution. For eliprodil the stock solution was buffered with the addition of 10% DMSO. All subsequent dilutions from stock were made in buffer.
# An extensively washed buffy coat membrane fraction was prepared from frozen adult rat forebrains (Zivic-Miller Laboratories, Inc., Zelienople, Pa.) as described previously (Coughenour L. L., Cordon, J. J., J. Pharmacol. Exp. Ther., 1997;280:584-592) and stored at −80° C. On the day of the assay, pellets were resuspended in 35 mL of assay buffer at pH 7.4 using a Polytron setting 6. After incubation at 37° C. for 30 minutes in a shaking water bath, the homogenate was centrifuged 40,000×g for 10 minutes at 4° C. The pellets were resuspended in fresh buffer and centrifuged 3 more times before final suspension for use in the assay.
# [^3H]Ifenprodil Binding. Triplicate incubations were carried out in a volume of 0.5 mL in 1.3 mL polypropylene tubes (Marsh Biomedical Products Inc., Rochester, N.Y.) for 2 hours at room temperature. Incubations contained test agents, membranes (100-200 μg protein) and 4 nM[^3H]-ifenprodil in 20 mM HEPES-KOH buffer, pH 7.4 (assay buffer). Assays were started by addition of the membranes. Bound radioligand was separated by filtration under reduced pressure using a Tomtec Mach II, 96-well cell harvester (Tomtec Inc., Orange, Colo.). Filtration was through Whatman GF/B glass fiber filters (Whatman Ltd, Maidstone, England), which had been soaked for at least 15 minutes in 0.3% polyethylenimine and allowed to air dry. The filters were rinsed with 3 mL of ice cold assay buffer within 6 seconds. Air was allowed to pass through the filters for an additional 10 seconds to remove residual moisture. The filter mat was supported on a cold (−20° C.) teflon support, and filters from individual wells were separated and placed in Mini Poly-Q vials (Beckman Instruments Inc., Fullerton, Calif.) and filled with 4 mL of scintillation cocktail (Beckman Ready Protein^+). Radioactivity retained on the filter was determined by liquid scintillation spectrophotometry. Nonspecific binding was defined as the binding in the presence of 1 mM ifenprodil. Specific binding was 90%.
# Data analysis. Binding curves were statistically analyzed for a best one or two site competition fit using GraphPad Prism software (GraphPad Software Inc., San Diego, Calif.). The normalized data was fit by nonweighted nonlinear regression to either [formula]
# Control data was entered as 100%, and no parameters were constrained. Inhibition curves were compared by ANOVA with post test comparisons of the logIC50 using Dunnett's multiple comparisons post test or Student's nonpaired, two-tailed t-test (GraphPad InStat software).
# T1 sequence (Q00960 27-1482, other chains not shown): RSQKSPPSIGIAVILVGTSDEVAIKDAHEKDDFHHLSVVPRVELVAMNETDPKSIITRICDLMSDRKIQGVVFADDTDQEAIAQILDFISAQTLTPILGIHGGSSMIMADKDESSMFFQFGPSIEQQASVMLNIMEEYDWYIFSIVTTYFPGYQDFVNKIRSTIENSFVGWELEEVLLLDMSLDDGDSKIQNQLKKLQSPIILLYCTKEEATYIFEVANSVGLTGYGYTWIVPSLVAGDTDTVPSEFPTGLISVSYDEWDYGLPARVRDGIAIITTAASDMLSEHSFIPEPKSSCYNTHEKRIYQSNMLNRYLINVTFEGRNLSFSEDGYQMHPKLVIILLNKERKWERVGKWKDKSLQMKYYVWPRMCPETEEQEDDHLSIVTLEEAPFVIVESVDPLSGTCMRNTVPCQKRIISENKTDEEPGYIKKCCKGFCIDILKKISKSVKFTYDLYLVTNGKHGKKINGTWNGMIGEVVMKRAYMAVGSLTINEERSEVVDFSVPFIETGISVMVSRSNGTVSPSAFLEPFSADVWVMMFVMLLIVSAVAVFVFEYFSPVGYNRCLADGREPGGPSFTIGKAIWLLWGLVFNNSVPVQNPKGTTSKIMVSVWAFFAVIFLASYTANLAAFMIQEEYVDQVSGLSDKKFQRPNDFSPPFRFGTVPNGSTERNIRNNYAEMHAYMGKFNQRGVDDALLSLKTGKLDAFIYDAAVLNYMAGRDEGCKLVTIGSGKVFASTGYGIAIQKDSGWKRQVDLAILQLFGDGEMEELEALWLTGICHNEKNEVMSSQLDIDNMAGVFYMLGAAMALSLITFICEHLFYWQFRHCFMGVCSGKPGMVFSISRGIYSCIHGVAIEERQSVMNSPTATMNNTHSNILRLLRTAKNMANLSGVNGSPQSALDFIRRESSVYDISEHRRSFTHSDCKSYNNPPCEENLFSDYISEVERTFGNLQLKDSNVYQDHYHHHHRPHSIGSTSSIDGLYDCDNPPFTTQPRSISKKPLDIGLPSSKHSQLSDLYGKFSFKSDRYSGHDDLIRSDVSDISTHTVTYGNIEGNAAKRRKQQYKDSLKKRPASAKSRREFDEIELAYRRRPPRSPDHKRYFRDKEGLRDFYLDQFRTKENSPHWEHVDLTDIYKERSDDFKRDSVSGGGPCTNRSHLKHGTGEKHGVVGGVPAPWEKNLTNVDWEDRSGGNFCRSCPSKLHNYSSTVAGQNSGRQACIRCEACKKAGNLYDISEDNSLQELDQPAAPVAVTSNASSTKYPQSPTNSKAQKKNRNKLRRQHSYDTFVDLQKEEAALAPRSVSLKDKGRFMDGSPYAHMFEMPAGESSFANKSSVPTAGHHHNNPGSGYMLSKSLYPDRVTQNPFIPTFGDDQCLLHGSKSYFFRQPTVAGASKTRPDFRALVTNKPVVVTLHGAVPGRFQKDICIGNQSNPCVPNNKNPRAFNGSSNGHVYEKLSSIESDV
row,SMILES,IC50 [nM]
1,"CN(CCCc1ccsc1)[C@H]1CC[C@H](c2ccc3[nH]c(=O)oc3c2)CC1 [Example 52b, 6-[trans-4-{[3-(3-Thiophen-3-yl)propyl]methylamino}cyclohexyl)-3H-benzoxazol-2-one]",3
2,"CC(C)Cc1ccc(CCCN(C)[C@H]2CC[C@H](c3ccc4[nH]c(=O)oc4c3)CC2)cc1 [Example 56, 6-(trans-4-{[3-(4-Isobutylphenyl)propyl]methylamino}cyclohexyl)-3H-benzoxazol-2-one]",71
3,"CN(CCCc1ccc(F)cc1Cl)[C@H]1CC[C@H](c2ccc3[nH]c(=O)oc3c2)CC1 [Example 44b, 6-(trans-4-{[3-(2-Chloro-4-fluorophenyl)propyl]methylamino}cyclohexyl)-3H-benzoxazol-2-one]",7
4,"CN(CCCc1ccc(F)cc1)[C@H]1CC[C@H](c2ccc3[nH]c(=O)[nH]c3c2)CC1 [Example 63, 5-(trans-4-{[3-(4-Fluorophenyl)propyl]methylamino}cyclohexyl)-1,3-dihydrobenzoimidazol-2-one]",2
5,"CN(CCCc1ccc(Cl)cc1)[C@H]1CC[C@H](c2ccc3[nH]c(=O)oc3c2)CC1 [Example 38b, 6-(trans-4-{[3-(4-Chlorophenyl)propyl]methylamino}cyclohexyl)-3H-benzoxazol-2-one]",7
6,"NCCN(CCCc1ccc(F)cc1)[C@H]1CC[C@H](c2ccc3[nH]c(=O)oc3c2)CC1 [Example 35, 6-(trans-4-{(2-Aminoethyl)-[3-(4-fluorophenyl)propyl]amino}cyclohexyl)-3H-benzoxazol-2-one]",170
7,"C=CCN(CCCc1ccc(F)cc1)[C@H]1CC[C@H](c2ccc3[nH]c(=O)oc3c2)CC1 [Example 32, 6-(trans-4-{Allyl-[3-(4-fluorophenyl)propyl]amino}cyclohexyl)-3H-benzoxazol-2-one]",158
8,"O=c1[nH]c2ccc([C@H]3CC[C@H](NCCCc4ccc(F)cc4)CC3)cc2[nH]1 [Example 62, 5-{trans-4-[3-(4-Fluorophenyl)propylamino]cyclohexyl}-1,3-dihydrobenzoimidazol-2-one]",17
9,"Cc1c(F)cccc1CCCN(C)[C@H]1CC[C@H](c2ccc3[nH]c(=O)oc3c2)CC1 [Example 48b, 6-(trans-4-{[3-(3-Fluoro-2-methylphenyl)propyl]methylamino}cyclohexyl)-3H-benzoxazol-2-one]",20
10,"CCC[C@@H](CSc1ccc(F)cc1)N(CC)[C@H]1CC[C@H](c2ccc3[nH]c(=O)oc3c2)CC1 [Example 36b, (S)-6-{trans-4-[Ethyl(1-(4-fluorophenylsulfanyl)pentan-2-yl)amino]-cyclohexyl}-3H-benzoxazol-2-one]",> 1000
11,"CN(CCN(C)[C@H]1CC[C@H](c2ccc3[nH]c(=O)oc3c2)CC1)c1ccccc1 [Example 60, 6-(trans-4-{Methyl-[2-(Methylphenylamino)ethyl]amino}cyclohexyl)-3H-benzoxazol-2-one]",> 1000
12,"O=c1[nH]c2ccc([C@H]3CC[C@H](NCCCc4ccc(C(F)(F)F)cc4)CC3)cc2o1 [Example 14, 6-{trans-4-[3-(4-Trifluoromethylphenyl)propylamino]cyclohexyl}-3H-benzoxazol-2-one]",128
13,"CN(CCCc1ccc(Cl)cc1Cl)[C@H]1CC[C@H](c2ccc3[nH]c(=O)oc3c2)CC1 [Example 54, 6-(trans-4-{[3-(2,4-Dichlorophenyl)propyl]methylamino}cyclohexyl)-3H-benzoxazol-2-one]",34
14,Cc1ccc(CCCN(C)[C@H]2CC[C@H](c3ccc4[nH]c(=O)oc4c3)CC2)c(C)c1 [Example 41b],68
15,"Cc1cc(F)ccc1CCCN(C)C1CCC(c2ccc3[nH]c(=O)oc3c2)CC1 (stereo in doubt) [Example 43b, 6-(trans-{4-[Methyl(4-fluoro-2-methylphenylpropyl)amino]cyclohexyl})-3H-benzoxazol-2-one]",56
16,"CCN([C@H]1CC[C@H](c2ccc3[nH]c(=O)oc3c2)CC1)[C@@H](C)CCc1ccccc1 [Example 28, 6-(trans-4-{Ethyl-[(S)-1-methyl-3-phenylpropyl]amino}cyclohexyl)-3H-benzoxazol-2-one]",184
17,"COc1cc2[nH]c(=O)oc2cc1[C@H]1CC[C@H](N(C)CCCc2ccc(F)cc2)CC1 [Example 65, 6-(trans-4-{[3-(4-Fluorophenyl)propyl]methylamino}cyclohexyl)-5-methoxy-3H-benzoxazol-2-one]",67
18,"CC(Cc1ccccc1)CN(C)[C@H]1CC[C@H](c2ccc3[nH]c(=O)oc3c2)CC1 (stereo partly drawn) [Example 50b, 6-(trans-{4-[Methyl(2-methyl-3-phenylpropyl)amino]cyclohexyl})-3H-benzoxazol-2-one]",351

# The remaining lines, values ahead:
row,IC50 [nM],SMILES
1,185,"CN(CCCc1ccc(F)cc1)[C@H]1CC[C@@H](c2ccc3[nH]c(=O)oc3c2)CC1 [Example 19, 6-(cis-4-{[3-(4-Fluorophenyl)propyl]methylamino}cyclohexyl)-3H-benzoxazol-2-one]"
2,15,"CN(CCCc1cccc(F)c1)[C@H]1CC[C@H](c2ccc3[nH]c(=O)oc3c2)CC1 [Example 47b, 6-(trans-4-{[3-(3-Fluorophenyl)propyl]methylamino}cyclohexyl)-3H-benzoxazol-2-one]"
3,316,"CN(CCCc1nccs1)[C@H]1CC[C@H](c2ccc3[nH]c(=O)oc3c2)CC1 [Example 59, 6-{trans-4-[Methyl(3-thiazol-2-ylpropyl)amino]cyclohexyl}-3H-benzoxazol-2-one]"
4,12,"CN(CCCc1ccc(F)cc1)[C@H]1CC[C@H](c2ccc3[nH]c(=O)sc3c2)CC1 [Example 61b, 6-(trans-4-{[3-(4-Fluorophenyl)propyl]methylamino}cyclohexyl)-3H-benzthiazol-2-one]"
5,219,"O=c1[nH]c2ccc([C@H]3CC[C@H](N(CCCc4ccc(F)cc4)CC4CC4)CC3)cc2o1 [Example 30, 6-(trans-4-{Cyclopropylmethyl-[3-(4-fluorophenyl)propyl]amino}cyclohexyl)-3H-benzoxazol-2-one]"
6,29,"CN(CCCc1ccc(F)c(F)c1)[C@H]1CC[C@H](c2ccc3[nH]c(=O)oc3c2)CC1 [Example 40b, 6-(trans-4-{[3-(3,4-Difluorophenyl)propyl]methylamino}cyclohexyl)-3H-benzoxazol-2-one]"
7,550,"CN(CC#Cc1ccccc1)[C@H]1CC[C@H](c2ccc3[nH]c(=O)oc3c2)CC1 [Example 51b, 6-(trans-{4-[Methyl(3-phenyl-prop-2-ynyl)amino]cyclohexyl})-3H-benzoxazol-2-one]"
8,21,"O=c1[nH]c2ccc([C@H]3CC[C@@H](NCCSc4ccccc4)CC3)cc2o1 [Example 5b, 6-[cis-4-(2-Phenylsulfanylethylamino)cyclohexyl]-3H-benzoxazol-2-one]"
9,7,"CN(CCCc1ccc(Cl)cc1F)[C@H]1CC[C@H](c2ccc3[nH]c(=O)oc3c2)CC1 [Example 45b, 6-(trans-4-{[3-(4-Chloro-2-fluorophenyl)propyl]methylamino}cyclohexyl)-3H-benzoxazol-2-one]"
10,> 1000,"CC(C)CN(CCCc1ccc(F)cc1)[C@H]1CC[C@H](c2ccc3[nH]c(=O)oc3c2)CC1 [Example 33, 6-(trans-4-{[3-(4-Fluorophenyl)propyl]isobutylamino}cyclohexyl)-3H-benzoxazol-2-one]"
11,22,"CN(CCCC1CCCCC1)[C@H]1CC[C@H](c2ccc3[nH]c(=O)oc3c2)CC1 [Example 49b, 6-{trans-4-[(3-Cyclohexylpropyl)methylamino]cyclohexyl}-3H-benzoxazol-2-one]"
12,980,"O=C(NCCNC1CCC(c2ccc3[nH]c(=O)oc3c2)CC1)c1ccccc1 (mixture of isomers) [Example 42b, N-{2-[4-(2-Oxo-2,3-dihydrobenzoxazol-6-yl)cyclohexylamino]ethyl}-benzamide]"
13,2,"CC(C)c1ccc(CCCN(C)[C@H]2CC[C@H](c3ccc4[nH]c(=O)oc4c3)CC2)cc1 [Example 53, 6-(trans-4-{[3-(4-Isopropylphenyl)propyl]methylamino}cyclohexyl)-3H-benzoxazol-2-one]"
